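Assay format: 96-well plates, 48-hour exposure. Abbreviation: GI50, concentration required for 50% inhibition of growth. TGI: total growth inhibition.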
Key:
Assay in all cases: growth of human tumour cells (NCI), 48 h
786-0 renal = test system: 786-0 renal
ACHN renal = test system: ACHN renal
HCT-15 colon = test system: HCT-15 colon
MDA-MB-231 breast = test system: MDA-MB-231 breast
NCI-H460 lung = test system: NCI-H460 lung
NCI/ADR-RES ovarian = test system: NCI/ADR-RES ovarian
OVCAR-3 ovarian = test system: OVCAR-3 ovarian
SF-295 CNS = test system: SF-295 CNS
SK-MEL-28 melanoma = test system: SK-MEL-28 melanoma
SN12C renal = test system: SN12C renal

`Cc1ccc(C=C2C(Cl)=C(Cl)C(Cl)=C2Cl)cc1` was tested, and the GI50 (786-0 renal) was 0.721 µM, the TGI (786-0 renal) was 1.75 µM and the GI50 (ACHN renal) was 0.7 µM. The TGI (ACHN renal) was 1.94 µM, the GI50 (HCT-15 colon) was 1.33 µM and the TGI (HCT-15 colon) was 4.88 µM. The GI50 (MDA-MB-231 breast) was 1.22 µM, the TGI (MDA-MB-231 breast) was 4.76 µM and the GI50 (NCI-H460 lung) was 1.66 µM. For the same molecule, the TGI (NCI-H460 lung) was 3.88 µM, the GI50 (NCI/ADR-RES ovarian) was 0.324 µM and the TGI (NCI/ADR-RES ovarian) was 1.52 µM. The GI50 (OVCAR-3 ovarian) was 0.361 µM, the TGI (OVCAR-3 ovarian) was 1.06 µM and the GI50 (SF-295 CNS) was 1.55 µM. It also gave a TGI (SF-295 CNS) of 3.93 µM, a GI50 (SK-MEL-28 melanoma) of 1.25 µM and a TGI (SK-MEL-28 melanoma) of 2.64 µM. The GI50 (SN12C renal) was 0.832 µM and the TGI (SN12C renal) was 3.02 µM.
Work on `CCCCNS(=O)(=O)c1n[nH]c(=O)[nH]c1=O` yielded a TGI (786-0 renal) of over 100 µM, a TGI (ACHN renal) of over 100 µM and a TGI (HCT-15 colon) of over 100 µM. The TGI (MDA-MB-231 breast) was over 100 µM, the TGI (NCI-H460 lung) was over 100 µM and the TGI (NCI/ADR-RES ovarian) was over 100 µM. The TGI (OVCAR-3 ovarian) was over 100 µM, the TGI (SF-295 CNS) was over 100 µM and the TGI (SK-MEL-28 melanoma) was over 100 µM. For the same molecule, the TGI (SN12C renal) was over 100 µM.
With `NC(=S)N/N=C1\c2ccccc2-c2c(F)c(F)c(F)c(F)c21` the GI50 (786-0 renal) was 6.56 µM, the TGI (786-0 renal) was 20 µM and the GI50 (ACHN renal) was 2.11 µM. For the same molecule, the TGI (ACHN renal) was 4.38 µM, the GI50 (HCT-15 colon) was 2.05 µM and the TGI (HCT-15 colon) was 4.61 µM. The GI50 (MDA-MB-231 breast) was 4.21 µM, the TGI (MDA-MB-231 breast) was 10.7 µM and the GI50 (NCI-H460 lung) was 5.65 µM. The TGI (NCI-H460 lung) was 24.7 µM, the GI50 (NCI/ADR-RES ovarian) was 5.77 µM and the TGI (NCI/ADR-RES ovarian) was 16.7 µM. For the same molecule, the GI50 (OVCAR-3 ovarian) was 2.06 µM, the TGI (OVCAR-3 ovarian) was 3.88 µM and the GI50 (SF-295 CNS) was 12.4 µM. For the same molecule, the TGI (SF-295 CNS) was 57.7 µM, the GI50 (SK-MEL-28 melanoma) was 2.99 µM and the TGI (SK-MEL-28 melanoma) was 8.87 µM. The GI50 (SN12C renal) was 7.31 µM and the TGI (SN12C renal) was 20 µM.
Work on `N#Cc1c(NC(=O)c2ccc(F)cc2)sc2c1CCCC2` yielded a GI50 (786-0 renal) of over 25 µM, a TGI (786-0 renal) of over 25 µM and a GI50 (ACHN renal) of over 25 µM. The TGI (ACHN renal) was over 25 µM, the GI50 (HCT-15 colon) was over 25 µM and the TGI (HCT-15 colon) was over 25 µM. The GI50 (MDA-MB-231 breast) was over 25 µM, the TGI (MDA-MB-231 breast) was over 25 µM and the GI50 (NCI-H460 lung) was over 25 µM. The TGI (NCI-H460 lung) was over 25 µM, the GI50 (NCI/ADR-RES ovarian) was over 25 µM and the TGI (NCI/ADR-RES ovarian) was over 25 µM. The GI50 (OVCAR-3 ovarian) was over 25 µM, the TGI (OVCAR-3 ovarian) was over 25 µM and the GI50 (SF-295 CNS) was over 25 µM. For the same molecule, the TGI (SF-295 CNS) was over 25 µM, the GI50 (SK-MEL-28 melanoma) was over 25 µM and the TGI (SK-MEL-28 melanoma) was over 25 µM. The GI50 (SN12C renal) was over 25 µM and the TGI (SN12C renal) was over 25 µM.
`O=C(c1ccc(C(F)(F)F)c(Cl)c1)N(Cc1ccc(Cl)cc1)c1ccc(-c2cc(C(F)(F)F)[nH]n2)c(O)c1` showed a GI50 (786-0 renal) of 0.895 µM, a TGI (786-0 renal) of 1.7 µM and a GI50 (ACHN renal) of 1.24 µM. The TGI (ACHN renal) was 4.05 µM, the GI50 (HCT-15 colon) was 0.777 µM and the TGI (HCT-15 colon) was 1.97 µM. For the same molecule, the GI50 (MDA-MB-231 breast) was 0.964 µM, the TGI (MDA-MB-231 breast) was 2.21 µM and the GI50 (NCI-H460 lung) was 1.16 µM. For the same molecule, the TGI (NCI-H460 lung) was 3.12 µM, the GI50 (NCI/ADR-RES ovarian) was 1.11 µM and the TGI (NCI/ADR-RES ovarian) was 2.99 µM. For the same molecule, the GI50 (OVCAR-3 ovarian) was 0.845 µM, the TGI (OVCAR-3 ovarian) was 2.19 µM and the GI50 (SF-295 CNS) was 1.08 µM. For the same molecule, the TGI (SF-295 CNS) was 2.87 µM, the GI50 (SK-MEL-28 melanoma) was 1.43 µM and the TGI (SK-MEL-28 melanoma) was 5.16 µM. It also gave a GI50 (SN12C renal) of 0.886 µM and a TGI (SN12C renal) of 2.04 µM.
Molecule `Cn1c(=O)nc2n(-c3ccc(Cl)cc3)c3cc(Cl)ccc3nc-2c1=O` has a TGI (786-0 renal) of 23.7 µM, a TGI (ACHN renal) of 25.5 µM and a TGI (HCT-15 colon) of 3.69 µM. It also gave a TGI (MDA-MB-231 breast) of 6.91 µM, a TGI (NCI-H460 lung) of 27.1 µM and a TGI (NCI/ADR-RES ovarian) of 35.6 µM. For the same molecule, the TGI (OVCAR-3 ovarian) was 4.19 µM, the TGI (SF-295 CNS) was 23.7 µM and the TGI (SK-MEL-28 melanoma) was 7.19 µM. It also gave a TGI (SN12C renal) of 13.9 µM.
Molecule `COc1ccc(NC2=C(I)C(=O)c3ncccc3C2=O)cc1` has a GI50 (786-0 renal) of 1.85 µM, a TGI (786-0 renal) of 4.74 µM and a GI50 (ACHN renal) of 1.81 µM. The TGI (ACHN renal) was 8.53 µM, the GI50 (HCT-15 colon) was 0.516 µM and the TGI (HCT-15 colon) was 2.42 µM. The GI50 (MDA-MB-231 breast) was 2.08 µM, the TGI (MDA-MB-231 breast) was 7.64 µM and the GI50 (NCI-H460 lung) was 0.647 µM. For the same molecule, the TGI (NCI-H460 lung) was 2.24 µM, the GI50 (NCI/ADR-RES ovarian) was 1.57 µM and the TGI (NCI/ADR-RES ovarian) was 4.41 µM. It also gave a GI50 (OVCAR-3 ovarian) of 0.27 µM, a TGI (OVCAR-3 ovarian) of 1.13 µM and a GI50 (SF-295 CNS) of 1.67 µM. For the same molecule, the TGI (SF-295 CNS) was 3.16 µM, the GI50 (SK-MEL-28 melanoma) was 1.66 µM and the TGI (SK-MEL-28 melanoma) was 3.3 µM. The GI50 (SN12C renal) was 1.05 µM and the TGI (SN12C renal) was 2.27 µM.

— PubChem BioAssay (NCI)
